From patent publication US10124065B2, “Lipids and lipid compositions for the delivery of active agents” (Novartis AG, priority 2013, dated 2018)

Tests used:
human leptin [1] = assay: Mouse subcutaneous injection of modified synthetic leptin mRNA, human leptin ELISA; assay type: in vivo; details: human leptin in mouse plasma, 10 μg leptin mRNA
Method: Prior to subcutaneous injection, mouse body weights were recorded and diet weighted, with mice grouped according to their body weights. The mice were manually restrained and placed on a work surface. Their scruffs were pinched and lifted away from the underlying muscle, the space into which was inserted a 25 gauge needle connected with a 1 ml syringe. The syringe plunger was pulled backwards in such a way as to ensure no fluid was drawn into the syringe, and then the desired volume of leptin mRNA was hand injected with moderate pressure and speed. The needle was then withdrawn and the mice returned to their cages.
(§1) 8-9 week old, male C57BL/6 mice were used for the in vivo study. FPLC purified modified synthetic leptin mRNA (SEQ ID NO: 5) in which the uridines were substituted with pseudouridine (N:P molar ratio=8:1) packaged in multiple cationic lipid were diluted in injectable saline at a dose of 10 μg per average group body weight.
On day 0, animals were weighed and sorted according to average body weight. ice were dosed at 9 AM and blood was taken at 9 AM on day 0. Blood was also taken at 9 AM on each of days 1 and 2 and assessed for leptin protein levels. Body weight and food intake were also recorded.
(§2) Human leptin in mouse plasma was measured by ELISA. Antibodies purchased from the R&D Systems duoset (Cat# DY398E, part#840279 for capture antibody and part#840280 for detection antibody) were reconstituted using PBS and titered, again using PBS. The capture antibody was coated at 4 ug/ml in 30 ul/well on a white Nunc® Maxisorp 384 well plate (Cat#460372). After an overnight incubation at room temperature the capture antibody was aspirated and the plate blocked for 2 hours at room temperature with 90 ul/well of KPL milk blocker (Cat#50-82-00). Once the incubation was completed the plate was aspirated and recombinant standards and samples were added to the plate at 30 ul/well for 2 hours at 37° C. while shaking at 600 rpm. Sample/standard dilutions were made using casein sample diluent. Washing/aspiration 3 times with 100 ul/well followed, using Teknova plate wash solution (Cat# P1192). Next, detection antibody was diluted using casein detection antibody diluent to 12.5 ng/ml and added at 30 ul/well for 2 hours room temperature. After this incubation, the plate was washed again and a solution of poly-streptavidin-HRP (Cat#21140) at a 1:1250 dilution in HRP dilution buffer was added to each well (30 ul/well) and incubated for 30 minutes room temperature. A final wash/aspiration removed the HRP solution and a chemiluminescent substrate was added at 30 ul/well (Cat#1859678 & 1859679). The plate was quickly read using a SpectramaxM5 plate reader with a 50 ms integration time. The dynamic range of the ELISA is from 100-2,000 pg/ml (6.25-125 pM) of human leptin. The assay is applicable to plasma from mice, rats and cynomolgus monkeys.

PLK-1 mRNA = assay: LS411N Xenograft Assay; assay type: in vivo, Nu/Nu mice; details: percent knock down of PLK-1 mRNA vs control in LS411N tumors, IV 3 mg/kg daily for three days
Method: Female Nu/Nu mice (6-8 weeks old) were implanted subcutaneously with 5×10^6 LS411N cells. Tumor growth was monitored by caliper measurement before treatment initiation. Mice bearing 150-250 mm^3 subcutaneous tumors were randomized and enrolled in the study. The stock siRNA formulations were diluted to […] with PBS for dosing. Animals enrolled in different groups received a single daily bolus IV injection of 3 mg/kg siRNA for three days. Tumors were harvested 24 hours post last injection to assess target gene regulation by qRT-PCR.
Lipid nanoparticles comprising lipid compounds of formula (I) and the PLK1-424 siRNA duplex sequence listed above were tested in the LS411N Xenograft Assay. The results of this assay are given in Table 5 below as a percent knock down of PLK-1 mRNA as compared to the control when administered as a single daily dose for three days at a dose of 3 mg/kg.

human leptin [2] = assay: Mouse intravenous tail vein injection of modified synthetic leptin mRNA, human leptin ELISA; assay type: in vivo, C57BL/6 mouse; details: human leptin in mouse plasma, 10 μg leptin mRNA
Method: Before the tail vein injection, mouse body weights were recorded and diet weighted, with mice grouped according to their body weights. Mice were prepared by warming them under a heating lamp for ˜2 minutes, with the mice about 12 inches from heat lamp.
For the tail vein injection procedure, the mice were placed in a restrainer and their tails cleaned with 70% alcohol. A 27 gauge needle (Becton Dickinson, Catalogue #305109) connected with a 1 ml syringe (Becton Dickinson, Catalogue #309659) was inserted into the tail vein, with bevel facing up, and the syringe plunger was pulled backwards to ensure blood is drawn into the syringe. The desired volume of modified synthetic leptin mRNA was injected by hand with moderate pressure and speed. The needle was then withdrawn and bleeding stopped by adding pressure to injection site with gauze.
as §1, with “Single housed, 8-9” for “8-9”, “pseudouridine was packaged in a cationic lipid” for “pseudouridine”, “and then” for “packaged in multiple cationic lipid”
On day 0, animals were weighed and sorted according to average body weight. Mice were dosed, and food intake (FI) was recorded, on each of days 1-7 and days 9, 11, and 16.
as §2, with “leptin.” for “leptin. The assay is applicable to plasma from mice, rats and cynomolgus monkeys.”

[3] = test system: plasma Factor VII enzyme activity; assay: Mouse Factor VII dosing / Factor VII Activity Assay; assay type: in vivo; details: percent knock down of plasma Factor VII activity, CD-1 mice, 48 h; for KD FVII 0.03 mg/kg: single IV dose 0.03 mg/kg
Summary of the method: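 Female CD-1 mice (~25 g) received a single IV tail-vein dose of lipid-nanoparticle-formulated Factor VII siRNA (0.3 or 0.03 mg/kg). Plasma taken ~48 h later; FVII activity measured chromogenically against vehicle-control plasma standard curve, reported as % knockdown.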

[4] = Measurement of mRNA encapsulation (Quant-iT Ribogreen); assay type: physicochemical; details: leptin mRNA in lipid nanoparticles (cationic lipid, DSPC, cholesterol, stealth lipid)
Method: All equipment and disposable supplies were certified free of RNase activity by the manufacturer or rendered RNase free by use of the RNaseZap reagent (LifeTechnologies). mRNA was encapsulated at a cationic lipid amine to mRNA phosphate (N:P) molar ratio of 4:1. Lipids (cationic lipid, DSPC, cholesterol and lipidated PEG or stealth lipid) were dissolved in ethanol. The molar ratios were […], respectively. The mixture was sonicated briefly, then gently agitated for 5 minutes and then maintained at 37° C. until use. mRNA was exchanged into citrate buffer pH 5.8-6.0 by use of Amicon Ultra-15 centrifugal concentrators, and the final concentration was adjusted to 0.5 mg/ml and held at 37° C. until use. An equal volume of lipids in ethanol, mRNA in citrate buffer, and citrate buffer alone were drawn into disposable syringes. Tubing leading from syringes containing lipids and mRNA are attached to the T junction, and tubing leading from the syringe containing citrate buffer alone was paired with the tubing exiting the T-junction over a collection vessel containing a stir bar on an active stir plate. Syringes were placed in a syringe pump set to expel contents at a flow rate of 1 ml per minute.
The pump was activated, and the collected mRNA in lipid nanoparticles was transferred to SnakeSkin dialysis tubing (10,000 MWCO, Thermo Scientific). Material was dialyzed against RNAse- and pyrogen-free 1× phosphate buffered saline overnight at 4° C.
Percent encapsulation of mRNA in lipid nanoparticles was determined using the Quant-iT Ribogreen RNA Assay kit (Life Technologies). The LNP-mRNA suspension was assayed in buffer (mRNA outside the particle), and buffer plus Triton X-100 detergent (total mRNA). The difference calculated was the mRNA inside the particle. A 1000 ng/mL stock from the RNA provided in the kit was prepared and used to generate a standard curve (0 ng/ml, 15.63-1000 ng/ml) in TE and TE+0.75% Triton X-100. LNP-mRNA samples in TE buffer and TE buffer+0.75% Triton X-100 were prepared with appropriate dilution so that reading was in the range of standard curve (400-2,000 fold). In a 384-well plate (Costar non-treated #3573) 0.04 ml of standard (in duplicate) or sample (in triplicate) were added per well. Ribogreen reagent was diluted 240-fold in TE buffer and added 0.06 ml per well. The contents of wells were mixed and fluorescence was measured (excitation=480 nm, emission=520 nm). Background values (no RNA) were subtracted from standard and test sample values and the concentrations of RNA were determined in the samples using the standard curves. The percent encapsulation of the sample was determined by dividing the difference in concentrations between sample+triton and sample in buffer alone by the sample+triton concentration.

[5] = Particle size of lipid nanoparticle (dynamic light scattering, Malvern Zetasizer); assay type: physicochemical; details: leptin mRNA lipid nanoparticles
Summary of the method: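 Sizes are average diameters of fully formed nanoparticles measured by dynamic light scattering. Samples were diluted in PBS to a count rate of about 200–400 kcts. Values are intensity-weighted Z-average sizes.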

[6] = Polydispersity index (PDI) of lipid nanoparticle (dynamic light scattering); assay type: physicochemical; details: leptin mRNA lipid nanoparticles
Method: Unless indicated otherwise, all PDIs referred to herein are the PDI of the fully formed nanoparticle, as measured by dynamic light scattering on a Malvern Zetasizer. The nanoparticle sample was diluted in phosphate buffered saline (PBS) so that the count rate was approximately 200-400 kcts. The data is presented in Tables 4 and 5 as a weighted average of the intensity measure.

| SMILES | Leptin expression SC-C57BI/6, 24 h (human leptin [1]) | LS411 KD 3 × 3 mg/Kg (PLK-1 mRNA; LNP Chol/DSPC/S010 45/44/9/2) | Leptin expression IV-C57BI/6, 24 h (human leptin [2]) | KD FVII 0.03 mg/kg ([3]; LNP Chol/DSPC/S010 45/44/9/2) | KD FVII 0.3 mg/kg ([3]; single IV dose 0.3 mg/kg, LNP Chol/DSPC/PEG-DMG 45/44/9/2) | % encapsulation [4] | Size (nm) [5] | Leptin expression IV-C57BI/6 (ng/mL), 6 h (human leptin [2]; 6 h) | PDI [6] | KD FVII 0.03 mg/kg ([3]; LNP Chol/DSPC/PEG-DMG 45/44/9/2) | LS411 KD 3 × 3 mg/Kg (PLK-1 mRNA; LNP Chol/DSPC/PEG-DSG 45/44/9/2) |
| --- | --- | --- | --- | --- | --- | --- | --- | --- | --- | --- | --- |
| CCCCC/C=C\C/C=C\CCCCCCCC(=O)OCCCOc1cc(CN(C)C)cc(OCCCOC(=O)CCCCCCC/C=C\C/C=C\CCCCC)c1 [Example 39, (9Z,9′Z,12Z,12′Z)-((5-((dimethylamino)methyl)-1,3-phenylene)bis(oxy))bis(propane-3,1-diyl)bis(octadeca-9,12-dienoate)] | 0.79 ng/mL | 55% | 10.47 ng/mL |  |  |  |  |  |  |  |  |
| CCCCCCCCCCCC(=O)OCCCCCCOc1cc(CN(C)C)cc(OCCCCCCOC(=O)CCCCCCCCCCC)c1 [Example 59, ((5-((dimethylamino)methyl)-1,3-phenylene)bis(oxy))bis(hexane-6,1-diyl)didodecanoate] | 1.16 ng/mL |  | 8.08 ng/mL | 48.24% |  |  |  |  |  |  |  |
| CCCCCCCC(=O)OCCCCCCCCCCOc1cc(CN(C)C)cc(OCCCCCCCCCCOC(=O)CCCCCCC)c1 [Example 43, ((5-((dimethylamino)methyl)-1,3-phenylene)bis(oxy))bis(decane-10,1-diyl)dioctanoate] | 0.66 ng/mL | 40% | 13.56 ng/mL |  | 97.4% |  |  |  |  |  |  |
| CCCCCCCCCOC(=O)CCCCCCC(=O)OCc1cc(COC(=O)CCCCCCC(=O)OCCCCCCCCC)cc(CN(C)C)c1 [Example 79, O′^1,O^1-((5-((dimethylamino)methyl)-1,3-phenylene)bis(methylene)) 8-dinonyl dioctanedioate] |  |  |  |  |  | 91.6% | 140.5 nm | 1.36 (6 h) ng/mL | 0.116 |  |  |
| CCCCCCCCCC(=O)OCCCCCCCCOc1cc(CN(C)C)cc(OCCCCCCCCOC(=O)CCCCCCCCC)c1 [Example 52, ((5-((dimethylamino)methyl)-1,3-phenylene)bis(oxy))bis(octane-8,1-diyl)bis(decanoate)] | 0.85 ng/mL | 50% | 21.18 ng/mL | 73.5% |  |  |  |  |  | 72.5% | 69% |
